Measured values taken from patent US8741934B2, “Inhibitors of ion channels” (Pfizer Limited, priority 2007, dated 2014).

Molecular target: T1, hSCN3A sodium channels (Homo sapiens, UniProt Q9NY46)
T1 construct: expressed in transfected cells
Test: hSCN3A electrophysiology, Ionworks Quattro automated platform (Table C)
Assay type: cell-based
Details: for inhibition at 3 µM: read-out: SCN3A % INHIB HTS IWQ 3 μM; for inhibition at 10 µM: read-out: SCN3A % INHIB HTS IWQ 10 μM; for SCN3A INHIB INACT DRC EP IWQ EMAX: Emax of dose-response curve, inactivated state; for IC50: read-out: SCN3A IWQ IC-50
Method: Human Embryonic Kidney (HEK) cells were transfected with an hSCN3A construct using lipofectamine reagent (Invitrogen), using standard techniques. […] Clones were screened for expression using the whole-cell voltage-clamp technique.
HEK cells stably transfected with hSCN3A were maintained in DMEM medium supplemented with 10% heat-inactivated fetal bovine serum and 400 μg/ml G418 sulfate in an incubator at 37° C. with a humidified atmosphere of 10% CO2. […] For electrophysiological studies, cells were removed from the culture flask by brief trypsinization and replated at low density onto glass cover slips. Cells were typically used for electrophysiological experiments within 24 to 72 h after plating.
Electrophysiological assays were also conducted using the Ionworks Quattro automated electrophysiological platform (Molecular Devices Corp) (Table C). Intracellular and extracellular solutions were as described above with the following changes, 100 μg/ml amphotericin was added to the intracellular solution to perforate the membrane and allow electrical access to the cells. hSCN3A cells were grown and harvested as for PatchXpress and cells were resuspended in extracellular solution at a concentration of 3-4×10^6 cells/ml. The onboard liquid handling facility of the Ionworks Quattro was used for dispensing cells and application of test compounds. A voltage protocol was then applied that comprised of a voltage step to fully inactivate the sodium channels, followed by a brief hyperpolarized recovery period to allow partial recovery from inactivation for unblocked sodium channels, followed by a test depolarized voltage step to assess magnitude of inhibition by test compound. Compound effect was determined based on current amplitude difference between the pre-compound addition and post-compound addition scans.

T1 sequence (Q9NY46 whole entry): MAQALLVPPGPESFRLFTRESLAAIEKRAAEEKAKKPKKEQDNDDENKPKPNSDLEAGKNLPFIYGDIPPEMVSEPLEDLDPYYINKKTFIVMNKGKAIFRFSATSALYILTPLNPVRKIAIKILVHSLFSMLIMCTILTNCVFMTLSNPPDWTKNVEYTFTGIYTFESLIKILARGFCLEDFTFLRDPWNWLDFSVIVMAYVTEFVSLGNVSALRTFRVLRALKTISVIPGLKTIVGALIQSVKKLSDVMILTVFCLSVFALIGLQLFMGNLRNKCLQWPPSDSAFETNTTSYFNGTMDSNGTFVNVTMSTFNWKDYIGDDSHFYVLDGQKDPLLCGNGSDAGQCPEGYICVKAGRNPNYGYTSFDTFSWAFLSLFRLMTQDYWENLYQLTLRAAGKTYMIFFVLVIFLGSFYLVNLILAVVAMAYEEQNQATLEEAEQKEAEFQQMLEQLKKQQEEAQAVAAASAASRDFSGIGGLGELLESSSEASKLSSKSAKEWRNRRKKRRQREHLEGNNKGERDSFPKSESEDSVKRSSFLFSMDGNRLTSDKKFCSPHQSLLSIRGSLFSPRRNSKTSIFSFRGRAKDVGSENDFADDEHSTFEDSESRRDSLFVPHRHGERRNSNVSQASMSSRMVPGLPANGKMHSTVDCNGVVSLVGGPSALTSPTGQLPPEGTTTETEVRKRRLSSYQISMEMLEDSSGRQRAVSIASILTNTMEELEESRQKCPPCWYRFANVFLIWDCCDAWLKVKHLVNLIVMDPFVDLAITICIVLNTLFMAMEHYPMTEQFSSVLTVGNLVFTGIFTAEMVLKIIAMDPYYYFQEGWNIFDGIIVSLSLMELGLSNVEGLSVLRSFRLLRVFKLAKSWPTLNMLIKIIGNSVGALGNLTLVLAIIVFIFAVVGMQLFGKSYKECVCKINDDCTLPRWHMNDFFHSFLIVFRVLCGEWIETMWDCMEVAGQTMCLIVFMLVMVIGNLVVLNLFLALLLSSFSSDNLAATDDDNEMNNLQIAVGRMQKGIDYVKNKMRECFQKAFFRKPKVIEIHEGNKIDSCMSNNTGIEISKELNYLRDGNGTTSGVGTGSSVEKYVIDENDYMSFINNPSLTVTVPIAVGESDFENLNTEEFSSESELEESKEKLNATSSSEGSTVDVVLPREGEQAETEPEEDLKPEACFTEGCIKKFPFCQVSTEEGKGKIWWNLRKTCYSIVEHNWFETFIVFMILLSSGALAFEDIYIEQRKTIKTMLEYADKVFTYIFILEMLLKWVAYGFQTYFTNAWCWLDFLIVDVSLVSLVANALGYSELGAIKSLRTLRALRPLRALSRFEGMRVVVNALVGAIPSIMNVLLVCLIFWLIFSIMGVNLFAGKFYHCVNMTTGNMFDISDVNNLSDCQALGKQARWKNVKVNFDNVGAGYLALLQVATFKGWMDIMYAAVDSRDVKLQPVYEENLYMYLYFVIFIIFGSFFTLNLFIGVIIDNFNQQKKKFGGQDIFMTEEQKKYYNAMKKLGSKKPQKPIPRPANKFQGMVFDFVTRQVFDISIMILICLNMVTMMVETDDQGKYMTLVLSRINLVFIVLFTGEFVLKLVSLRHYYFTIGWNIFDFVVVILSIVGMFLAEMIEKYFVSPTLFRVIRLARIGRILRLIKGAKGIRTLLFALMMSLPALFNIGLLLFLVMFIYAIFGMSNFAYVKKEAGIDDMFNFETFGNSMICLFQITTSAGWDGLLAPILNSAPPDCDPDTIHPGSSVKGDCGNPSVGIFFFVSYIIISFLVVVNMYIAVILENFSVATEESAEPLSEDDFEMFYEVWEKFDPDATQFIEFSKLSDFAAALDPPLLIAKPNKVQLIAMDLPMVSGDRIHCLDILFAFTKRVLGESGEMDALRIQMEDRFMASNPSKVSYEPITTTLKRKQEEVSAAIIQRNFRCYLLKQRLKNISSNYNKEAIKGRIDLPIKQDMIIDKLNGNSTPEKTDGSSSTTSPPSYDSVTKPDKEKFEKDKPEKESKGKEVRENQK

Compound | inhibition at 3 µM (3 μM compound) [%] | inhibition at 10 µM (10 μM compound) [%] | SCN3A INHIB INACT DRC EP IWQ EMAX | IC50 [µM] | SCN3A % INHIB HTS IWQ 3 μM (3 μM compound) [%] | SCN3A % INHIB HTS IWQ 10 μM (10 μM compound) [%]
Cc1ccnc(NC(=O)c2ccc(S(=O)(=O)Nc3nccs3)cc2)c1 [Example 181, N-(4-methylpyridin-2-yl)-4-[(1,3-thiazol-2-ylamino)sulfonyl]benzamide] | -12.2 | 11.2 |  |  |  | 
O=C(NC(CO)c1ccccc1Cl)c1ccc(S(=O)(=O)Nc2nccs2)cc1 (stereo not shown) [Example 56, N-[1-(2-chlorophenyl)-2-hydroxyethyl]-4-[(1,3-thiazol-2-ylamino)sulfonyl]benzamide] | 3.23 | 2.53 |  |  |  | 
O=C(c1ccc(S(=O)(=O)Nc2nccs2)cc1)N1CCC(CCc2ccccc2)C1 (stereo not shown) [Example 227, 4-{[3-(2-Phenylethyl)pyrrolidin-1-yl]carbonyl}-N-1,3-thiazol-2-yl-benzenesulfonamide] | 29.3 | 45.8 | 53 | 20.3 |  | 
N#Cc1cccc(OCC2CCCN(C(=O)c3ccc(S(=O)(=O)Nc4nccs4)cc3)C2)c1 (stereo not shown) [Example 278, 4-({3-[(3-Cyanophenoxy)methyl]piperidin-1-yl}carbonyl)-N-1,3-thiazol-2-yl-benzenesulfonamide] | 25.4 | 30 |  |  |  | 
N#Cc1cccc(OC2CCCN(C(=O)c3ccc(S(=O)(=O)Nc4nccs4)cc3)C2)c1 (stereo not shown) [Example 265, 4-{[3-(3-Cyanophenoxy)piperidin-1-yl]carbonyl}-N-1,3-thiazol-2-yl-benzenesulfonamide] | 22.6 | 44.3 | 32.2 |  |  | 
O=C(c1ccccc1)C1CCCN(C(=O)c2ccc(S(=O)(=O)Nc3nccs3)cc2)C1 (stereo not shown) [Example 253, 4-[(3-Benzoylpiperidin-1-yl)carbonyl]-N-1,3-thiazol-2-yl-benzenesulfonamide] | 5.99 | 31.3 |  |  |  | 
N-[1-(3-methylbenzyl)cyclopropyl] 4-[(1,3-thiazol-2-ylamino)sulfonyl]benzamide [Example 159] |  |  |  |  | 28.7 | 35.85
O=C(c1ccc(S(=O)(=O)Nc2nccs2)cc1)N1CCSCC1c1ccc(F)cc1 (stereo not shown) [Example 223, 4-{[3-(4-Fluorophenyl)thiomorpholin-4-yl]carbonyl}-N-1,3-thiazol-2-yl-benzenesulfonamide] | 36.9 | 47.5 | 46.3 | 33 |  | 
CC(C)(NC(=O)c1ccc(S(=O)(=O)Nc2nccs2)cc1)c1cc(F)cc(F)c1 [Example 141, N-[1-(3,5-difluorophenyl)-1-methylethyl]-4-[(1,3-thiazol-2-ylamino)sulfonyl]benzamide] | 6.82 | 25 |  |  |  | 
CN(CC1Cc2ccccc2O1)C(=O)c1ccc(S(=O)(=O)Nc2nccs2)cc1 (stereo not shown) [Example 274, N-(2,3-dihydro-1-benzofuran-2-ylmethyl)-N-methyl-4-[(1,3-thiazol-2-ylamino)sulfonyl]benzamide] | 14.6 | 19.6 |  |  |  | 
O=C(N[C@H](CO)Cc1ccccc1)c1ccc(S(=O)(=O)Nc2nccs2)cc1 [Example 182, N-[(1S)-1-benzyl-2-hydroxyethyl]-4-[(1,3-thiazol-2-ylamino)sulfonyl]benzamide] | 4.7 | 4.83 |  |  |  | 
COc1cccc(C2(NC(=O)c3ccc(S(=O)(=O)Nc4nccs4)cc3)CC2)c1 [Example 164, N-[1-(3-methoxyphenyl)cyclopropyl]-4-[(1,3-thiazol-2-ylamino)sulfonyl]benzamide] | 16.6 | 24.1 |  |  |  | 
O=C(c1ccc(S(=O)(=O)Nc2nccs2)cc1)N1CCCC(Cc2cncnc2)C1 (stereo not shown) [Example 272, 4-{[3-(Pyrimidin-5 ylmethyl)piperidin-1-yl]carbonyl}-N-1,3-thiazol-2-yl-benzenesulfonamide] | 1.88 | 8.31 |  |  |  | 
O=C(NC(CO)c1ccccc1)c1ccc(S(=O)(=O)Nc2nccs2)cc1 (stereo not shown) [Example 57, N-(2-hydroxy-1-phenylethyl)-4-[(1,3-thiazol-2-ylamino)sulfonyl]benzamide] | 25.2 | 47.8 |  |  |  | 
O=C(c1ccc(S(=O)(=O)Nc2nccs2)cc1)N1CCCC1c1ccccn1 (stereo not shown) [Example 283, 4-[(2-Pyridin-2-ylpyrrolidin-1-yl)carbonyl]-N-1,3-thiazol-2-ylbenzenesulfonamide] | -1.98 | 0.98 |  |  |  | 
O=C(c1ccc(S(=O)(=O)Nc2nccs2)cc1)N1CCOC(COc2cccc(Cl)c2)C1 (stereo not shown) [Example 234, 4-({2-[(3-Chlorophenoxy)methyl]morpholin-4-yl}carbonyl)-N-1,3-thiazol-2-yl-benzenesulfonamide] | 32 | 45.9 | 43.1 |  |  | 

Compound | inhibition at 3 µM (3 μM compound) [%] | inhibition at 10 µM (10 μM compound) [%] | SCN3A INHIB INACT DRC EP IWQ EMAX | IC50 [µM] | SCN3A % INHIB HTS IWQ 3 μM (3 μM compound) [%] | SCN3A % INHIB HTS IWQ 10 μM (10 μM compound) [%]
O=C(c1ccc(S(=O)(=O)Nc2nccs2)cc1)N1CCCC(OCc2ccccc2)C1 (stereo not shown) [Example 211, 4-{[3-(benzyloxy)piperidin-1-yl]carbonyl}-N-1,3-thiazol-2-yl-benzenesulfonamide] | 2.5 | 10.1 |  |  |  | 
Cc1ncccc1OCC1CN(C(=O)c2ccc(S(=O)(=O)Nc3nccs3)cc2)CCO1 (stereo not shown) [Example 243, 4-[(2-{[(2-Methylpyridin-3-yl)oxy]methyl}morpholin-4-yl)carbonyl]-N-1,3-thiazol-2-yl-benzenesulfonamide] | 15.3 | 14.7 |  |  |  | 
O=C(c1ccc(S(=O)(=O)Nc2nccs2)cc1)N(Cc1ccccc1)[C@@H](CO)c1ccccc1 [Example 208, N-benzyl-N-[(1R)-2-hydroxy-1-phenylethyl]-4-[(1,3-thiazol-2-yl-amino)sulfonyl]benzamide] | 3.57 | -14.2 |  |  |  | 
O=C(c1ccc(S(=O)(=O)Nc2nccs2)cc1)N1CCOCC(O)(Cc2ccccc2)C1 (stereo not shown) [Example 258, 4-[(6-Benzyl-6-hydroxy-1,4-oxazepan-4-yl)carbonyl]-N-1,3-thiazol-2-yl-benzenesulfonamide] | 0.17 | 12 |  |  |  | 
Cc1cccc(CNC(=O)c2ccc(S(=O)(=O)Nc3nccs3)cc2)c1C [Example 82, N-(2,3-dimethylbenzyl)-4-[(1,3-thiazol-2-ylamino)sulfonyl]benzamide] | 29.7 | 63 |  |  |  | 
O=C(N[C@H]1CCC[C@@H]1c1ccccc1)c1ccc(S(=O)(=O)Nc2nccs2)cc1 [Example 131, N-[(1S,2R)-2-phenylcyclopentyl]-4-[(1,3-thiazol-2-ylamino)sulfonyl]benzamide] | 27.2 | 13.1 |  |  |  | 
Cc1cccc(C2CCCN2C(=O)c2ccc(S(=O)(=O)Nc3nccs3)cc2)c1 (stereo not shown) [Example 228, 4-{[2-(3-Methylphenyl)pyrrolidin-1-yl]carbonyl}-N-1,3-thiazol-2-yl-benzenesulfonamide] | 19.3 | 3.53 |  |  |  | 
O=C(c1ccc(S(=O)(=O)Nc2nccs2)cc1)N1CCOCC(Cc2ccccc2)C1 (stereo not shown) [Example 259, 4-[(6-Benzyl-1,4-oxazepan-4-yl)carbonyl]-N-1,3-thiazol-2-yl-benzenesulfonamide] | 5.51 | 19.6 |  |  |  | 
Cc1ccc(C)c(C2CCCN2C(=O)c2ccc(S(=O)(=O)Nc3nccs3)cc2)c1 (stereo not shown) [Example 202, 4-{[2-(2,5-Dimethylphenyl)pyrrolidin-1-yl]carbonyl}-N-1,3-thiazol-2-yl-benzenesulfonamide] | 15.8 | 13.7 |  |  |  | 
O=C(c1ccc(S(=O)(=O)Nc2nccs2)cc1)N(Cc1ccccc1)[C@@H]1CCCC[C@H]1O [Example 213, N-benzyl-N-[(1R,2R)-2-hydroxycyclohexyl]-4-[(1,3-thiazol-2-yl-amino)sulfonyl]benzamide] | -0.67 | 1.51 |  |  |  | 
O=C(c1ccc(S(=O)(=O)Nc2nccs2)cc1)N1CCCC1c1ccccc1Cl (stereo not shown) [Example 215, 4-{[2-(2-Chlorophenyl)pyrrolidin-1-yl]carbonyl}-N-1,3-thiazol-2-yl-benzenesulfonamide] | 30.5 | 51.9 | 64.7 | 8.41 |  | 
CC[C@H](NC(=O)c1ccc(S(=O)(=O)Nc2nccs2)cc1)c1ccccc1 [Example 145, N-[(1S)-1-phenylpropyl]-4-[(1,3-thiazol-2-ylamino)sulfonyl]benzamide] | 2.05 | 19.4 |  |  |  | 
COc1cccc(C2CCCCCN2C(=O)c2ccc(S(=O)(=O)Nc3nccs3)cc2)c1 (stereo not shown) [Example 275, 4-{[2-(3-Methoxyphenyl)azepan-1-yl]carbonyl}-N-1,3-thiazol-2-yl-benzenesulfonamide] | 9.93 | -0.2 |  |  |  | 
COc1ccccc1CC1(NC(=O)c2ccc(S(=O)(=O)Nc3nccs3)cc2)CC1 [Example 157, N-[1-(2-methoxybenzyl)cyclopropyl]-4-[(1,3-thiazol-2-ylamino)sulfonyl]benzamide] | 11.3 | 15.3 |  |  |  | 
O=C(NCCc1ccccc1F)c1ccc(S(=O)(=O)Nc2nccs2)cc1 [Example 77, N-[2-(2-fluorophenyl)ethyl]-4-[(1,3-thiazol-2-ylamino)sulfonyl]benzamide] | 16.6 | 27.9 |  |  |  | 
